The nature of this data set: Human liver microsome (HLM) metabolic stability assay. Format: in vitro ADME. The note with it: pooled human liver microsomes, HLM 0.5 mg/mL, test compound 0.5 μM, NADPH, 37° C. On the procedure:
Microsomal Assay: Human liver microsomes (20 mg/mL) were obtained from Xenotech, LLC (Lenexa, Kans.). β-nicotinamide adenine dinucleotide phosphate, reduced form (NADPH), magnesium chloride (MgCl2), and dimethyl sulfoxide (DMSO) were purchased from Sigma-Aldrich. The incubation mixtures were prepared according to Table 2:
Determination of Metabolic Stability: Two aliquots of this reaction mixture were used for a compound of this invention. The aliquots were incubated in a shaking water bath at 37° C. for 3 minutes. The test compound was then added into each aliquot at a final concentration of 0.5 μM. The reaction was initiated by the addition of cofactor (NADPH) into one aliquot (the other aliquot lacking NADPH served as the negative control). Both aliquots were then incubated in a shaking water bath at 37° C. Fifty microliters (50 μL) of the incubation mixtures were withdrawn in triplicate from each aliquot at 0, 5, 10, 20, and 30 minutes and combined with 50 μL of ice-cold acetonitrile to terminate the reaction. The same procedure was followed for dasatinib and for the positive control, 7-ethoxycoumarin. Testing was done in triplicate.
Data analysis: The in vitro half-lives (t1/2s) for test compounds were calculated from the slopes of the linear regression of % parent remaining (ln) vs incubation time relationship. in vitro t1/2=0.693/k
k=−[slope of linear regression of % parent remaining(ln) vs incubation time]
Data analysis was performed using Microsoft Excel Software.
The metabolic stability of compounds of Formula I was tested using pooled liver microsomal incubations. Full scan LC-MS analysis was then performed to detect major metabolites. Samples of the test compounds, exposed to pooled human liver microsomes, were analyzed using HPLC-MS (or MS/MS) detection. For determining metabolic stability, multiple reaction monitoring (MRM) was used to measure the disappearance of the test compounds. For metabolite detection, Q1 full scans were used as survey scans to detect the major metabolites.
On the technique in general: Microsomes from liver hold many membrane-bound enzymes, among them those of drug oxidation.

Where [1] appears, read: 0-30 minutes, Experiment 1, read-out: t1/2 (min) Experiment 1.
Where [2] appears, read: average of Experiments 1 and 2, read-out: t1/2 (min) Average.
Where [3] appears, read: 0-30 minutes, Experiment 2, read-out: t1/2 (min) Experiment 2.

Where two headings read alike, the source gives them in different places.

For the compound `[2H]C([2H])(O)CN1CCN(c2cc(Nc3ncc(C(=O)Nc4c(Cl)cccc4C([2H])([2H])[2H])s3)nc(C)n2)CC1` [Compound 101, N-(2-Chloro-6-(methyl-d3)phenyl)-2-(6-(4-(2,2-d2-2-hydroxyethyl)piperazin-1-yl)-2-methylpyrimidin-4-ylamino)thiazole-5-carboxamide], the half-life at 0.5 μM runs as follows: under setting [1], 17.7 min; under setting [2], 17.9 min.
Consider `[2H]C([2H])([2H])c1cccc(Cl)c1NC(=O)c1cnc(Nc2cc(N3CCN(C([2H])([2H])C([2H])([2H])O)CC3)nc(C)n2)s1` [Compound 103, N-(2-Chloro-6-(methyl-d3)phenyl)-2-(6-(4-(1,1,2,2-d4-2-hydroxyethyl)piperazin-1-yl)-2-methylpyrimidin-4-ylamino)thiazole-5-carboxamide], for which the half-life at 0.5 μM is, setting by setting: under setting [1], 19.4 min; under setting [3], 17.2 min; under setting [2], 18.3 min.
Take `[2H]C([2H])([2H])c1cccc(Cl)c1NC(=O)c1cnc(Nc2cc(N3C([2H])([2H])C([2H])([2H])N(C([2H])([2H])C([2H])([2H])O)C([2H])([2H])C3([2H])[2H])nc(C)n2)s1` [Compound 115, N-(2-Chloro-6-(methyl-d3)phenyl)-2-(6-(4-(1,1,2,2-d4-2-hydroxyethyl)-(piperazin-d8)-1-yl)-2-methylpyrimidin-4-ylamino)thiazole-5-carboxamide]: the half-life at 0.5 μM is 17.3 min under setting [1], 18.2 min under setting [3] and 17.8 min under setting [2].
On the same counts, the results for `[2H]C1([2H])N(CCO)C([2H])([2H])C([2H])([2H])N(c2cc(Nc3ncc(C(=O)Nc4c(C)cccc4Cl)s3)nc(C)n2)C1([2H])[2H]` [Compound 117, N-(2-Chloro-6-methylphenyl)-2-(6-(4-(2-hydroxyethyl)-(piperazin-d8)-1-yl)-2-methylpyrimidin-4-ylamino)thiazole-5-carboxamide] are 19.6 min, 18.5 min and 19.1 min.
Take `Cc1nc(Nc2ncc(C(=O)Nc3c(C)cccc3Cl)s2)cc(N2CCN(CCO)CC2)n1` [Dasatinib, 2-{6-[4-(2-Hydroxy-ethyl)-piperazin-1-yl]-2-methyl-pyrimidin-4-ylamino}-thiazole-5-carboxylic acid (2-chloro-6-methyl-phenyl)-amide, reference compound]: the half-life at 0.5 μM under setting [1] stood at 16 min, the half-life at 0.5 μM under setting [3] came to 14.6 min and the half-life at 0.5 μM under setting [2] was 15.3 min.

Source of the values: patent US8338425B2, “Heterocyclic kinase inhibitors” (Concert Pharmaceuticals, Inc., priority 2007, dated 2012).
